Reference: patent US5041636A, “Urea derivatives” (Wako Pure Chemical Industries, Ltd., priority 1986, dated 1991)
Where a name gives a salt, the structure may show the parent alone.

How the values were obtained:
Format in all cases: physicochemical
[1] = Stability of leuco dye solution (Table 1); set-up: key: A: stable; B: slightly unstable
Description: (§1) Various properties such as the stability of leuco dye solution, the stability after color developed, the maximum absorption wavelength (λmax), the sensitivity (ε) and the solubility in water of typical 14 examples of the urea derivatives of the formula (I) are shown in Table 1.
(§2) In Table 1, "A" means stable and "B" means slightly unstable in the evaluation of the stability of the leuco dye solution and the stability after color development. The solubility in water is evaluated as .circleincircle. highly soluble, soluble, and X hardly soluble.

[2] = Stability after color development (Table 1); set-up: key: A: stable; B: slightly unstable
Description: as §1, §2

[3] = Maximum absorption wavelength (λmax) and sensitivity (ε) (Table 1); settings: at color development
Source text: as §1

[4] = Solubility in water (Table 1)
Description: as §1, §2

Row | SMILES | Stability of leuco dye soln. [1] | Stability after color developed [2] | λmax [3] [nm] | Solubility in water [4]
1 | Cc1ccc(S(=O)(=O)NC(=O)N(c2ccc(N(C)CO)cc2)c2ccc(N3CCCCC3)cc2)cc1 [(5)] | A | B | 730 | 
2 | CN(C)c1ccc(N(C(=O)NCCC2CCOCC2)c2ccc(N(C)CO)cc2)cc1 [(6)] | A | B | 730 | 
3 | CCCN(CCC)c1ccc2c(c1)Oc1cc(N(CCC)CCC)ccc1N2C(=O)NCC(=O)O [(11)] | A | B | 666 | .circleincircle
4 | CCCN(CCC)c1ccc2c(c1)Sc1cc(N(CCC)CCC)ccc1N2C(=O)NCC(=O)O [(12)] | A | B | 666 | .circleincircle
5 | CN(C)c1ccc2c(c1)Oc1cc(N(C)CC(=O)O)ccc1N2C(=O)NCC(=O)O [(13)] | B | B | 666 | .circleincircle
6 | CN(C)c1ccc2c(c1)Sc1cc(N(C)CC(=O)O)ccc1N2C(=O)NCC(=O)O [(14)] | B | B | 666 | .circleincircle
7 | CNC(=O)N(c1ccc(N(C)C)cc1)c1ccc(N(C)C)cc1 [(15), reference compound] | A | B | 730 | 
8 | CCCCNC(=O)N(c1ccc(N(C)C)cc1)c1ccc(N(C)C)cc1 [(16), reference compound] | A | B | 730 | 
9 | CNC(=O)N1c2ccc(N(C)C)cc2Sc2cc(N(C)C)ccc21 [(17), reference compound] | B | B | 666 | 
10 | CN(C)c1ccc(N(C(=O)NCC(=O)O)c2ccc(N(C)C)cc2)cc1 [Compound No. (1), sodium salt of N,N-bis(4-dimethylaminophenyl)-N'-carboxymethylurea] | A | B | 730 | .circleincircle
11 | CN(C)c1ccc(N(C(=O)Nc2ccc(S(=O)(=O)O)cc2)c2ccc(N(C)C)cc2)cc1 [Compound No. (2), sodium salt of N, N-bis(4-dimethylaminophenyl)-N'-(4-sulfophenyl)urea] | A | B | 730 | .circleincircle
12 | CCN(CC)c1ccc(N(C(=O)NS(=O)(=O)c2ccc(C)cc2)c2ccc(N(C)C)cc2C)c(C)c1 [Compound No. (7), N-(4-dimethylamino-2-methylphenyl)-N-(4'-diethylamino-2'-methylphenyl)-N'-(4-methylphenylsulfonyl)urea] | A | A | 740 | 
13 | CN(C)c1ccc2c(c1)Sc1cc(N(C)C)ccc1N2C(=O)NCC(=O)O [Compound No. (9), sodium salt of 10-(carboxymethylaminocarbonyl)-3,7-bis(dimethylamino)phenothiazine] | B | B | 666 | .circleincircle
14 | CN(C)c1ccc2c(c1)Oc1cc(N(C)C)ccc1N2C(=O)NCC(=O)O [Compound No. (10), sodium salt of 10-(carboxymethylaminocarbonyl)-3,7-bis(dimethylamino)phenoxazine] | B | B | 666 | .circleincircle
